{"source": "paper PMC5513037", "about": "“Examining the influence of specificity ligands and ATP-competitive ligands on the overall effectiveness of bivalent kinase inhibitors” (Proteome Science, 2017)", "experiment_in_all_cases": "KAM-matrix competition in K562 lysate;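 on 0.001 uM KAM: median log10 fold change of treatment over DMSO control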;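 on 0.01 uM KAM: median log10 fold change of treatment over DMSO control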;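 on 0.1 uM KAM: median log10 fold change of treatment over DMSO control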;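 on 1 uM KAM: median log10 fold change of treatment over DMSO control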;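 on 10 uM KAM: median log10 fold change of treatment over DMSO control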", "type_in_all_cases": "binding", "key": {"BRD2": {"biological_target": "T1, BRD2 (Homo sapiens, UniProt P25440)", "T1 construct": "endogenous in cells; host or cells: K562", "experimental": "(§1) Supplement 12953_2017_125_MOESM1_ESM.zip/MS_Supp Info.xlsx, sheet \"KAM\" | column: 10 uM KAM; 1 uM KAM; 0.1 uM KAM; 0.01 uM KAM; 0.001 uM KAM; RB50"}, "CAMKK2": {"biological_target": "T2, CAMKK2 (Homo sapiens, UniProt Q96RR4)", "T2 construct": "endogenous in cells; host or cells: K562", "experimental": "as §1"}, "CDC42BPA": {"biological_target": "T3, CDC42BPA (Homo sapiens, UniProt Q5VT25)", "T3 construct": "endogenous in cells; host or cells: K562", "experimental": "as §1"}, "CSNK2A2": {"biological_target": "T4, CSNK2A2 (Homo sapiens, UniProt P19784)", "T4 construct": "endogenous in cells; host or cells: K562", "experimental": "as §1"}, "MAP4K2": {"biological_target": "T5, MAP4K2 (Homo sapiens, UniProt Q12851)", "T5 construct": "endogenous in cells; host or cells: K562", "T5 sequence (Q12851 1-820)": "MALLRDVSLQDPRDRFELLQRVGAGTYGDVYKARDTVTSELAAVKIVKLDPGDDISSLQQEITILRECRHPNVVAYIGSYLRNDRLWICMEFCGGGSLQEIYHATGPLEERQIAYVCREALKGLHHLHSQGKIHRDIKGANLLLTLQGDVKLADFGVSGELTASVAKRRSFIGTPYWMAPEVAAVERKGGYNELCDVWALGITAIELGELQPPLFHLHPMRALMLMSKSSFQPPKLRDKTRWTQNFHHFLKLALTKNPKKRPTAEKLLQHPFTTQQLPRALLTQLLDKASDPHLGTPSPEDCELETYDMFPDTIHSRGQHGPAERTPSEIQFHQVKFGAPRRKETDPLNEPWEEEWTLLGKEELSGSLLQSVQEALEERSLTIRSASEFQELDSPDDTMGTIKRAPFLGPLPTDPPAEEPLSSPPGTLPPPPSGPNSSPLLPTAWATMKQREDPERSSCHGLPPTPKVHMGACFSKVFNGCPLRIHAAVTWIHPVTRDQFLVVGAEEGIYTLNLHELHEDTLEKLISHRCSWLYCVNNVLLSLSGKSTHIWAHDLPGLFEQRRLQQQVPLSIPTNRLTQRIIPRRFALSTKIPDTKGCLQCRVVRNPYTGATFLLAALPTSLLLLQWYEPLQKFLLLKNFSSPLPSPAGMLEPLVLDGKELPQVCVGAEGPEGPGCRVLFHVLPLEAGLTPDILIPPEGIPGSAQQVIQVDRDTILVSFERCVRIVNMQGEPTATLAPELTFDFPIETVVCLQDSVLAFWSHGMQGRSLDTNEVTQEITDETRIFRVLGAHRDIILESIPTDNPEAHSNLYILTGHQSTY", "experimental": "as §1"}, "PAK6": {"biological_target": "T6, PAK6 (Homo sapiens, UniProt Q9NQU5)", "T6 construct": "endogenous in cells; host or cells: K562", "experimental": "as §1"}, "PDPK1": {"biological_target": "T7, PDPK1 (Homo sapiens, UniProt O15530)", "T7 construct": "endogenous in cells; host or cells: K562", "T7 sequence (O15530 1-556)": "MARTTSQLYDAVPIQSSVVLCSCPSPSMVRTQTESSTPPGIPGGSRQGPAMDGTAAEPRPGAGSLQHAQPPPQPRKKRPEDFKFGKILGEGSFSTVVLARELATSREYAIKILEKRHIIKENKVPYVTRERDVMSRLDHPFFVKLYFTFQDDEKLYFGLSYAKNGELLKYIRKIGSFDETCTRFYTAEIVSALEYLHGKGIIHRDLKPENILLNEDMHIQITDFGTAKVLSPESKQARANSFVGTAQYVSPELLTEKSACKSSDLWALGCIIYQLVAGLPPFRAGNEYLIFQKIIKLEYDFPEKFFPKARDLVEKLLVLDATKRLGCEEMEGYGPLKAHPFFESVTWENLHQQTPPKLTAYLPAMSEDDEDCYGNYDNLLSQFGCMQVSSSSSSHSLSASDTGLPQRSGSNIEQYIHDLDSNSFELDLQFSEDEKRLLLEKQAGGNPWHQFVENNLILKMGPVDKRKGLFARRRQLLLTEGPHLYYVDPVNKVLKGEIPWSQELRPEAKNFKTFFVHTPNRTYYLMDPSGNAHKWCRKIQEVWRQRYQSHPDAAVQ", "experimental": "as §1"}, "STK38": {"biological_target": "T8, STK38 (Homo sapiens, UniProt Q15208)", "T8 construct": "endogenous in cells; host or cells: K562", "experimental": "as §1"}, "TNIK": {"biological_target": "T9, TNIK (Homo sapiens, UniProt Q9UKE5)", "T9 construct": "K562 cell pellets were thawed on ice and resuspended in cold Lysis buffer; endogenous in cells; host or cells: K562", "experimental": "as §1"}, "[1]": {"conditions": "read-out: RB50 (the source's name)"}, "[2]": {"conditions": "KAM 0.001-10 uM, read-out: RB50 (the source's name)"}}, "note": "pIC50: −log10 of the molar value.", "data": [{"smiles": "N#CCc1ccc(Nc2nc(NCCCN)cc(Nc3cc(C4CC4)[nH]n3)n2)cc1", "note": "[KAM]", "values": [{"measurement": "median Log10 fold change", "setting": "BRD2; 0.001 uM KAM", "result": -0.02696}, {"measurement": "median Log10 fold change", "setting": "BRD2; 0.01 uM KAM", "result": -0.0008346}, {"measurement": "median Log10 fold change", "setting": "BRD2; 0.1 uM KAM", "result": -0.172}, {"measurement": "median Log10 fold change", "setting": "BRD2; 1 uM KAM", "result": -0.286}, {"measurement": "median Log10 fold change", "setting": "BRD2; 10 uM KAM", "result": -0.3099}, {"measurement": "pIC50", "setting": "BRD2; [1]", "result": 5.72}, {"measurement": "median Log10 fold change", "setting": "CAMKK2; 0.001 uM KAM", "result": 0.007982}, {"measurement": "median Log10 fold change", "setting": "CAMKK2; 0.01 uM KAM", "result": -0.006148}, {"measurement": "median Log10 fold change", "setting": "CAMKK2; 0.1 uM KAM", "result": -0.132}, {"measurement": "median Log10 fold change", "setting": "CAMKK2; 1 uM KAM", "result": -0.4329}, {"measurement": "median Log10 fold change", "setting": "CAMKK2; 10 uM KAM", "result": -0.5591}, {"measurement": "pIC50", "setting": "CAMKK2; [1]", "result": 6.26}, {"measurement": "pIC50", "setting": "CDC42BPA; [2]", "result": "< 5.00"}, {"measurement": "0.001 uM KAM", "setting": "CDC42BPA; relative to 0 uM KAM = 0", "result": -0.02138}, {"measurement": "0.01 uM KAM", "setting": "CDC42BPA; relative to 0 uM KAM = 0", "result": -0.0113}, {"measurement": "0.1 uM KAM", "setting": "CDC42BPA; relative to 0 uM KAM = 0", "result": -0.01108}, {"measurement": "1 uM KAM", "setting": "CDC42BPA; relative to 0 uM KAM = 0", "result": 0.04656}, {"measurement": "10 uM KAM", "setting": "CDC42BPA; relative to 0 uM KAM = 0", "result": -0.06135}, {"measurement": "median Log10 fold change", "setting": "CSNK2A2; 0.001 uM KAM", "result": 0.0115}, {"measurement": "median Log10 fold change", "setting": "CSNK2A2; 0.01 uM KAM", "result": -0.003085}, {"measurement": "median Log10 fold change", "setting": "CSNK2A2; 0.1 uM KAM", "result": -0.2921}, {"measurement": "median Log10 fold change", "setting": "CSNK2A2; 1 uM KAM", "result": -0.5833}, {"measurement": "median Log10 fold change", "setting": "CSNK2A2; 10 uM KAM", "result": -0.635}, {"measurement": "pIC50", "setting": "CSNK2A2; [1]", "result": 6.82}, {"measurement": "median Log10 fold change", "setting": "MAP4K2; 0.001 uM KAM", "result": -0.01936}, {"measurement": "median Log10 fold change", "setting": "MAP4K2; 0.01 uM KAM", "result": -0.0303}, {"measurement": "median Log10 fold change", "setting": "MAP4K2; 0.1 uM KAM", "result": -0.2006}, {"measurement": "median Log10 fold change", "setting": "MAP4K2; 1 uM KAM", "result": -0.2485}, {"measurement": "median Log10 fold change", "setting": "MAP4K2; 10 uM KAM", "result": -0.341}, {"measurement": "pIC50", "setting": "MAP4K2; [1]", "result": 5.65}, {"measurement": "median Log10 fold change", "setting": "PAK6; 0.001 uM KAM", "result": -0.09371}, {"measurement": "median Log10 fold change", "setting": "PAK6; 0.01 uM KAM", "result": 0.03145}, {"measurement": "median Log10 fold change", "setting": "PAK6; 0.1 uM KAM", "result": -0.196}, {"measurement": "median Log10 fold change", "setting": "PAK6; 1 uM KAM", "result": -0.3777}, {"measurement": "median Log10 fold change", "setting": "PAK6; 10 uM KAM", "result": -0.6349}, {"measurement": "pIC50", "setting": "PAK6; [1]", "result": 6.28}, {"measurement": "pIC50", "setting": "PDPK1; [2]", "result": "< 5.00"}, {"measurement": "0.001 uM KAM", "setting": "PDPK1; relative to 0 uM KAM = 0", "result": -0.001927}, {"measurement": "0.01 uM KAM", "setting": "PDPK1; relative to 0 uM KAM = 0", "result": -0.01199}, {"measurement": "0.1 uM KAM", "setting": "PDPK1; relative to 0 uM KAM = 0", "result": -0.03413}, {"measurement": "1 uM KAM", "setting": "PDPK1; relative to 0 uM KAM = 0", "result": -0.1736}, {"measurement": "10 uM KAM", "setting": "PDPK1; relative to 0 uM KAM = 0", "result": -0.2461}, {"measurement": "median Log10 fold change", "setting": "STK38; 0.001 uM KAM", "result": -0.121}, {"measurement": "median Log10 fold change", "setting": "STK38; 0.01 uM KAM", "result": -0.04373}, {"measurement": "median Log10 fold change", "setting": "STK38; 0.1 uM KAM", "result": -0.1647}, {"measurement": "median Log10 fold change", "setting": "STK38; 1 uM KAM", "result": -0.3238}, {"measurement": "median Log10 fold change", "setting": "STK38; 10 uM KAM", "result": -0.6242}, {"measurement": "pIC50", "setting": "STK38; [1]", "result": 6.12}, {"measurement": "median Log10 fold change", "setting": "TNIK; 0.001 uM KAM", "result": -0.02112}, {"measurement": "median Log10 fold change", "setting": "TNIK; 0.01 uM KAM", "result": -0.02269}, {"measurement": "median Log10 fold change", "setting": "TNIK; 0.1 uM KAM", "result": -0.2334}, {"measurement": "median Log10 fold change", "setting": "TNIK; 1 uM KAM", "result": -0.3546}, {"measurement": "median Log10 fold change", "setting": "TNIK; 10 uM KAM", "result": -0.3559}, {"measurement": "pIC50", "setting": "TNIK; [1]", "result": 6.19}]}]}
